Reference: patent US20230301925A1, “PHOSPHOLIPID PRESENTING PARTICLES FOR CELL TARGETING IN THERAPY AND DIAGNOSTICS” (UNIVERSITY OF SOUTH CAROLINA, priority 2022, published 2023)

Test system: BMDMs
Experiment: UNC2025 with PS:PLG particle treatment of LPS-inflamed primary macrophages
Assay type: cell-based, mice
Settings: LPS 1 ng/mL, PS:PLG 1:10 cell to particle ratio
Experimental: FIG. 10 depicts TNF-α secreted by BMDMs pre-treated with UNC2025 followed by a co-treatment with LPS (1 ng/mL) and PS:PLG (1:10 cell to particle ratio).
FIG. 11 depicts IL-6 secreted by BMDMs pre-treated with UNC2025 followed by a co-treatment with LPS (1 ng/mL) and PS:PLG (1:10 cell to particle ratio).
FIG. 12 depicts IL-10 secreted by BMDMs pre-treated with UNC2025 followed by a co-treatment with LPS (1 ng/mL) and PS:PLG (1:10 cell to particle ratio).
This effect is not limited to UNC2025 but applicable to a broad range of bioactive molecules including small molecules, nucleic acids, peptides, lipids, glycans, etcetera.

`CCCCNc1ncc2c(-c3ccc(CN4CCN(C)CC4)cc3)cn([C@H]3CC[C@H](O)CC3)c2n1` [UNC2025] was tested, and the “anti-inflammatory response of PS:PLG particle treatment with co-delivery of small molecule (TNF-α, IL-6, IL-10)” value was “synergistically enhanced”.
